Read-outs that look alike come from different tables or passages of the source.
Key:
[1] = biological target: T1, VCB:KRAS ternary complex partners (Homo sapiens, UniProt P01116+P40337, P01116:C118S/P01116:G12D); experiment: biochemical; set-up: FP displacement of FAM-HIF-1alpha peptide from VCB, with or without saturating KRAS G12D; settings: FP, saturating KRAS G12D
T1 construct: VCB (Avi-tagged, biotinylated for SPR) plus KRAS 1-169 C118S GDP; E. coli, His6 tags removed; with Elongin-C; Elongin-B
T1 sequence (Q15370 1-104): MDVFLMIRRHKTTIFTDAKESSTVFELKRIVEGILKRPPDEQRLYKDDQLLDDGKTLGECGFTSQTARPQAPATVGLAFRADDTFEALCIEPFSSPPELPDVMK
T1 sequence (P01116 1-169 G12D/C118S): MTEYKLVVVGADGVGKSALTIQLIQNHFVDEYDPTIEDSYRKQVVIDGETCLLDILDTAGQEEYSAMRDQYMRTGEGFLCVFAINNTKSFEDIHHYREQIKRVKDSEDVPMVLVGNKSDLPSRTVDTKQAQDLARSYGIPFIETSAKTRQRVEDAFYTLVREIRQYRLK
T1 sequence (Q15369 17-112, further chain): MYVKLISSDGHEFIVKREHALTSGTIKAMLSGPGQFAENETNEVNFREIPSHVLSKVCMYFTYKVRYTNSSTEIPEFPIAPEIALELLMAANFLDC
T1 sequence (P40337 54-213): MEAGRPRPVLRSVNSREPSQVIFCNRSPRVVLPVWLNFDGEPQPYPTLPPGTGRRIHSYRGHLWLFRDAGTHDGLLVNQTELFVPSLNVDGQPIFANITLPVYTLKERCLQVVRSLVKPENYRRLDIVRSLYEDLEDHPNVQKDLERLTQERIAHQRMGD

[2] = biological target: T2, KRAS wild type (Homo sapiens, UniProt P01116); set-up: KRAS degradation by capillary electrophoresis (Wes) immunodetection; settings: 6 h, degrader
T2 construct: endogenous in A375 / HEK293
T2 sequence (P01116 whole entry): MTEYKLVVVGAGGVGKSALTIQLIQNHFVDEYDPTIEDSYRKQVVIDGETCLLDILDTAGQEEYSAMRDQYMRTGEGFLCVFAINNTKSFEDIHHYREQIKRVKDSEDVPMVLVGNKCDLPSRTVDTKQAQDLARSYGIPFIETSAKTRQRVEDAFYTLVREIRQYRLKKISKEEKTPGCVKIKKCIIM
Experimental: Protein Detection by Capillary Electrophoresis Cells (50 000) were seeded the day before treatment into 96-well clear-flat bottom plates and incubated overnight (37 °C, humidified tissue culture incubator, 5% CO2). Compounds were added from DMSO stock solution using a digital dispenser and cells are incubated at 37 °C as specified (24 hours for KRAS degradation, 6 hours for determination of pERK levels). At the end of the incubation, medium was removed, cells washed with ice cold PBS, PBS removed and 50 µL lysis buffer (Meso Scale Discovery #R60TX-2) supplemented with 1:100 protease inhibitor solution, 1:100 phosphatase inhibitor I, 1:100 phosphatase inhibitor II (Meso Scale Discovery #R70AA-1), 0.5 µL/mL Benzonase (Novagen #70664-3) and 10 mM dithiothreitol added to each well. Plates with lysis buffer were immediately transferred to -80 °C freezer for at least 2 hours and then thawed on ice. Lysates were transferred to a 96 well V-bottom plate and insoluble debris was pelleted by centrifugation for 20 min. at 4 000 rpm. 40 µL of the supernatant were transferred to a fresh Eppendorf PCR plate. Analysis of protein levels was conducted using the Wes System, ProteinSimple (https://www.bio-techne.com/) as specified by the manufacturer. Briefly, Wes Master Mix (12-230 kDa WES Separation Module, 8 × 25 capillary cartridges, ProteinSimple #SM-W004) and molecular weight markers were prepared as specified in the manufacturer’s recommendations. To detect primary antibodies, anti-rabbit (Protein Simple #DM-001) or anti-mouse (Protein Simple #DM-002) detection modules were used. 7.2 µL lysate + 1.8 µL master mix were combined and heated to 95 °C for 5 min.

[3] = biological target: T3, KRAS^WT (Homo sapiens, UniProt P01116); set-up: KRAS degradation by capillary electrophoresis immunodetection; settings: read-out: DC50 24 h HEK293
T3 construct: endogenous wild type
T3 sequence (P01116 whole entry): as above
Experimental: (§1) Protein Detection by Capillary Electrophoresis Cells (50 000) were seeded the day before treatment into 96-well clear-flat bottom plates and incubated overnight (37 °C, humidified tissue culture incubator, 5% CO2). Compounds were added from DMSO stock solution using a digital dispenser and cells are incubated at 37 °C as specified (24 hours for KRAS degradation, 6 hours for determination of pERK levels). At the end of the incubation, medium was removed, cells washed with ice cold PBS, PBS removed and 50 µL lysis buffer (Meso Scale Discovery #R60TX-2) supplemented with 1:100 protease inhibitor solution, 1:100 phosphatase inhibitor I, 1:100 phosphatase inhibitor II (Meso Scale Discovery #R70AA-1), 0.5 µL/mL Benzonase (Novagen #70664-3) and 10 mM dithiothreitol added to each well. Plates with lysis buffer were immediately transferred to -80 °C freezer for at least 2 hours and then thawed on ice. Lysates were transferred to a 96 well V-bottom plate and insoluble debris was pelleted by centrifugation for 20 min. at 4 000 rpm. 40 µL of the supernatant were transferred to a fresh Eppendorf PCR plate. Analysis of protein levels was conducted using the Wes System, ProteinSimple (https://www.bio-techne.com/) as specified by the manufacturer. […]

[4] = biological target: T3, KRAS^WT; set-up: KRAS degradation by capillary electrophoresis immunodetection; settings: read-out: DC50 24 h A375
[5] = tested on: NCI-H358; experiment: cells; set-up: Inhibition of cell proliferation, 5 days; settings: Homo sapiens, NCI-H358, 120 h; read-out: IC50 Proliferation NCI-H358
Excerpt: Next, we set out to test the ability of a single pan-KRAS degrading molecule, compound 4, to selectively suppress oncogenic signaling and proliferation in cancer cell lines driven by diverse KRAS mutants. To this end, we first confirmed degradation of KRAS by compound 4 in KRAS-dependent (GP2d, SW620 and NCI-H358 expressing KRAS^G12D, - G12V or -G12C, respectively) as well as in KRAS independent (A-375, HEK293) cell lines (Fig. 3A, fig. S4A). […] Both inhibition and degradation repressed the established markers of MAPK signaling pERK (fig. S4B-D) and DUSP6 (Fig. 3B, fig. S4E) in KRAS dependent cell lines. […] Neither degradation nor inhibition had appreciable antiproliferative effects in the KRAS independent cell lines A-375 and HEK293 (Fig. 3C, fig. S4F). […] Pan-KRAS degradation impacts MAPK signaling and cancer cell proliferation.

[6] = biological target: KRAS^G12C (Homo sapiens, UniProt P01116, G12C); set-up: endogenous; KRAS degradation by capillary electrophoresis immunodetection; settings: read-out: DC50 24 h NCI-H358
Chain of KRAS^G12C (P01116 whole entry G12C): as the sequence (P01116 whole entry) above, with G12C counted along it
Experimental: as §1

[7] = biological target: KRAS^G12V (Homo sapiens, UniProt P01116, G12V); set-up: endogenous in SW620; KRAS degradation by capillary electrophoresis (Wes) immunodetection; settings: SW620; 6 h; degrader
Chain of KRAS^G12V (P01116 whole entry G12V): as the sequence (P01116 whole entry) above, with G12V counted along it

[8] = biological target: KRAS^G12D (Homo sapiens, UniProt P01116, G12D); set-up: endogenous or HiBiT-tagged in cells; KRAS degradation by capillary electrophoresis (Wes) immunodetection; settings: GP2d; 6 h; degrader
Chain of KRAS^G12D (P01116 whole entry G12D): as the sequence (P01116 whole entry) above, with G12D counted along it

[9] = biological target: T4, VHL-NanoLuc (Homo sapiens, UniProt P40337); experiment: NanoBRET VHL target engagement; assay type: cell-based
T4 construct: VHL-NanoLuc fusion (Promega) transfected into HEK293; endogenous elongins
T4 sequence (P40337 whole entry, the tested form may be a part): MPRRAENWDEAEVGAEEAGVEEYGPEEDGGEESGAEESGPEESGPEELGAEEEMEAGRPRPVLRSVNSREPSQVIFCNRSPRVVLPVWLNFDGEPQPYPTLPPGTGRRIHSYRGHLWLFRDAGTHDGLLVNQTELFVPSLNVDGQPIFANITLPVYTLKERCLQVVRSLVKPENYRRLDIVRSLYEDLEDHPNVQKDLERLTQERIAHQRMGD

Row | SMILES | Kd [1] [nM] | DC50 ([2]; A375) [nM] | DC50 ([2]; HEK293) [nM] | DC50 [3] [nM] | DC50 [4] [nM] | IC50 [5] [nM] | DC50 [6] [nM] | DC50 [7] [nM] | DC50 [8] [nM] | IC50 [9] [nM]
1 | Cc1ncsc1-c1ccc(CNC(=O)[C@@H]2C[C@@H](O)CN2C(=O)[C@@H](NC(=O)CCCCCN2CCCN(c3nccc(-c4noc([C@@]5(C)CCCc6sc(N)c(C#N)c65)n4)n3)[C@@H](C)C2)C(C)(C)C)cc1 [compound 3] | 20 ± 3 | 751 | > 1000 | > 1000 | 455 | 983 | 241 | 159 | 53.4 | –
2 | Cc1ncsc1-c1ccc(CNC(=O)[C@@H]2C[C@@H](O)CN2C(=O)[C@@H](c2cc(OCCCCN3CCCN(c4nccc(-c5noc([C@@]6(C)CCCc7sc(N)c(C#N)c76)n5)n4)[C@@H](C)C3)no2)C(C)C)cc1 [compound 4] | – | 36.7 | 12.8 | 86.7 | 33.4 | 85.4 | 25.1 | 24 | 7.3 | –
3 | Cc1ncsc1-c1ccc(CNC(=O)[C@@H]2C[C@@H](O)CN2C(=O)[C@@H](NC(=O)COCCCN2CCCN(c3nccc(-c4noc([C@@]5(C)CCCc6sc(N)c(C#N)c65)n4)n3)[C@@H](C)C2)C(C)(C)C)cc1 [compound 2] | 15 ± 2 | – | – | – | – | – | – | – | – | 5000
